Experiment: xn = mol fraction of the nth substance listed
Conditions: 101.3 kPa

C=C[n+]1ccn(CCCC)c1.NCCCC[C@H](N)C(=O)[O-] + O
Conditions	electrical conductivity [S/m]	viscosity [mPa·s]
293.15 K, x1 = 0.1	–	3.29
293.15 K, x1 = 0.7	–	95.3
303.15 K, x1 = 0.1	1.99	2.85
303.15 K, x1 = 0.3	2.61	5.21
303.15 K, x1 = 0.7	1.91	74.7
308.15 K, x1 = 0.3	2.78	–
308.15 K, x1 = 0.5	3.12	–
308.15 K, x1 = 0.7	2.3	–
308.15 K, x1 = 0.9	1.23	–
308.15 K, x1 = 1	0.154	–
313.15 K, x1 = 0.1	2.36	2.38
313.15 K, x1 = 0.7	2.54	55.38
313.15 K, x1 = 0.9	1.34	1167
313.15 K, x1 = 1	0.176	3700
318.15 K, x1 = 0.1	2.51	–
318.15 K, x1 = 0.3	3.29	–
318.15 K, x1 = 0.5	3.6	–
318.15 K, x1 = 0.7	2.95	–
318.15 K, x1 = 0.9	1.45	–
318.15 K, x1 = 1	0.195	–
323.15 K, x1 = 0.1	2.78	1.97
323.15 K, x1 = 0.3	3.56	3.57
323.15 K, x1 = 0.7	3.28	42.7
323.15 K, x1 = 0.9	1.62	950
323.15 K, x1 = 1	0.214	1961
333.15 K, x1 = 0.1	–	1.58
333.15 K, x1 = 0.3	–	2.36
333.15 K, x1 = 0.5	–	36.92
333.15 K, x1 = 0.7	–	36.62
333.15 K, x1 = 1	–	1174
343.15 K, x1 = 0.3	–	2.2
343.15 K, x1 = 0.7	–	33.98
343.15 K, x1 = 1	–	780
353.15 K, x1 = 0.5	–	36.44
353.15 K, x1 = 0.7	–	33.87
353.15 K, x1 = 0.9	–	185
353.15 K, x1 = 1	–	560

— a compilation of properties of binary mixtures (doi:10.1016/j.molliq.2022.119944)
